The results in this text go back to ChEMBL document CHEMBL1201862, “PubChem BioAssay data set” (2004).

Test systems include NCI/ADR-RES; LOX IMVI; KM12; Hs-578T; PC-3; SF-268; HOP-62; MDA-N; CAKI-1; HT-29; A549; UACC-257; SN12C; HL-60; Malme-3M; A498; BT-549; COLO 205; SNB-75.
Assay in all cases: growth of human tumour cells (NCI), 48 h

SMILES strings stand for the structures.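 Test compounds were applied to cells in 96-well plates for 48 hours at 5 doses. Here, GI50 denotes the concentration required for 50% inhibition of growth.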 Activity calls are given as the source filed them. No stated cut-off is given here; in the data, active = GI50 up to about 1.1 µM and inactive = higher.

In the case of `Cc1cc(OCC(=O)O)c(Cl)cc1Cl`, the GI50 with NCI/ADR-RES, with LOX IMVI, with KM12, with Hs-578T, with PC-3 and in the experiment on SF-268 was > 100 µM (inactive) in each case. The GI50 in the experiment with HOP-62, with MDA-N, with CAKI-1, with HT-29, in the experiment with A549 and with UACC-257 was > 100 µM (inactive) throughout. Besides, the GI50 with SN12C, in the experiment with HL-60, in the experiment on Malme-3M, in the experiment on A498 and in the experiment on BT-549 was > 100 µM (inactive) throughout.

On to `O=C(Cn1c2c(c3ccccc31)CCCC2)N1CCOCC1`, for which the GI50 in the experiment with NCI/ADR-RES is > 100 µM (inactive); in the experiment with LOX IMVI, > 100 µM (inactive); in the experiment with Hs-578T, 35.2 µM (inactive); in the experiment on PC-3 it was > 100 µM (inactive); in the experiment on SF-268 it was > 100 µM (inactive); in the experiment on HOP-62, > 100 µM (inactive). Also, the GI50 in the experiment with MDA-N, in the experiment on CAKI-1, in the experiment with HT-29, in the experiment with A549, with UACC-257 and with SN12C was > 100 µM (inactive) in each case. The GI50 in the experiment on HL-60, in the experiment with COLO 205, in the experiment on Malme-3M, in the experiment on A498 and in the experiment with BT-549 was > 100 µM (inactive) throughout.

Turning to `O=C(N[C@@H](c1ccccc1)[C@@H](O)C(=O)OCc1ccc([N+](=O)[O-])cc1)c1ccccc1`, the GI50 in the experiment on NCI/ADR-RES, with LOX IMVI, in the experiment with KM12, with Hs-578T, in the experiment on PC-3 and with SF-268 was > 100 µM (inactive) throughout. The GI50 with HOP-62, in the experiment on MDA-N, with CAKI-1, in the experiment with HT-29, in the experiment with A549 and in the experiment on UACC-257 was > 100 µM (inactive) in each case. For the same compound, the GI50 in the experiment with SNB-75 is 44.1 µM (inactive); in the experiment with SN12C, > 100 µM (inactive); with COLO 205 it was > 100 µM (inactive); in the experiment on Malme-3M, > 100 µM (inactive); in the experiment on A498 it was > 100 µM (inactive); with BT-549, > 100 µM (inactive).

With `O=S(=O)(/C=C/C=C/[S+]([O-])c1ccccc1)c1ccccc1` (configuration not stated), the GI50 in the experiment on NCI/ADR-RES is 2.12 µM (inactive); in the experiment with LOX IMVI, 1.03 µM (active); with KM12 it was > 2.63 µM (inactive); in the experiment with Hs-578T, 3.51 µM (inactive); in the experiment with PC-3 it was > 6.92 µM (inactive); with SF-268, 3.13 µM (inactive). Further, the GI50 in the experiment on HOP-62 was > 10 µM (inactive); in the experiment on MDA-N, 2.95 µM (inactive); in the experiment on CAKI-1, 1.84 µM (inactive); in the experiment with HT-29, 2.21 µM (inactive); with A549 it was > 10 µM (inactive); in the experiment with UACC-257, 1.67 µM (inactive). Besides, the GI50 in the experiment on SNB-75 was 4.66 µM (inactive); in the experiment with SN12C, 2 µM (inactive); in the experiment with HL-60 it was 0.327 µM (active); in the experiment on COLO 205, 1.76 µM (inactive); in the experiment on Malme-3M, 1.98 µM (inactive); in the experiment with A498, 6.97 µM (inactive). In addition, the GI50 in the experiment on BT-549 is > 10 µM (inactive).

In the case of `CC(=O)O[C@H]1CCC2[C@@H]3CCC4Cc5nc6c(nc5C[C@]4(C)C3CC[C@@]21C)CC1CC[C@@H]2C(CC[C@@]3(C)C2CC[C@@H]3C(C)CCCC(C)C)[C@@]1(C)C6` (some centres not stated), the GI50 in the experiment on NCI/ADR-RES, in the experiment with LOX IMVI, in the experiment on KM12, in the experiment with Hs-578T, in the experiment on PC-3 and in the experiment on SF-268 was > 100 µM (inactive) in each case. Moreover, the GI50 with HOP-62, in the experiment with MDA-N, in the experiment with HT-29, in the experiment on A549, in the experiment on UACC-257 and in the experiment with SNB-75 was > 100 µM (inactive) throughout. In addition, the GI50 with SN12C, with HL-60, in the experiment with COLO 205, in the experiment on Malme-3M and in the experiment on BT-549 was > 100 µM (inactive) each time.

As to `COc1ccc(/C=C2\CCC(CNc3cc(C)on3)C2=O)cc1` (configuration not stated), the GI50 in the experiment with NCI/ADR-RES is > 54 µM (inactive); with LOX IMVI, > 100 µM (inactive); in the experiment with KM12, > 100 µM (inactive); in the experiment on Hs-578T it was 57.9 µM (inactive); in the experiment with PC-3, > 100 µM (inactive); in the experiment with SF-268, > 70 µM (inactive). Further, the GI50 in the experiment on HOP-62 is 47.4 µM (inactive); in the experiment with MDA-N, > 100 µM (inactive); in the experiment with CAKI-1, > 100 µM (inactive); in the experiment on HT-29 it was > 100 µM (inactive); in the experiment on A549, > 88.7 µM (inactive); in the experiment on UACC-257 it was > 94.6 µM (inactive). The GI50 is 29.4 µM (inactive) with SNB-75; > 100 µM (inactive) in the experiment on SN12C; > 21.5 µM (inactive) in the experiment with HL-60; > 100 µM (inactive) with COLO 205; > 100 µM (inactive) in the experiment on Malme-3M; > 72.4 µM (inactive) in the experiment on A498. Also, in the experiment with BT-549, the GI50 is > 78.3 µM (inactive).

For the compound `O=c1c(-c2ccccc2Cl)coc2cc(F)ccc12`, the GI50 in the experiment with NCI/ADR-RES is 19.5 µM (inactive); in the experiment on LOX IMVI it was 13.2 µM (inactive); in the experiment on KM12, 21.5 µM (inactive); in the experiment with Hs-578T, 28.4 µM (inactive); with PC-3, > 100 µM (inactive); in the experiment on SF-268, 40.7 µM (inactive). The GI50 in the experiment with HOP-62 was 22.2 µM (inactive); in the experiment on MDA-N, 3.79 µM (inactive); in the experiment on CAKI-1, 29.1 µM (inactive); in the experiment on HT-29, 22.5 µM (inactive); with A549 it was 23.7 µM (inactive); in the experiment with UACC-257, 23.9 µM (inactive). In addition, the GI50 in the experiment on SNB-75 is 17.5 µM (inactive); in the experiment on SN12C, 53.2 µM (inactive); in the experiment on HL-60, 4.3 µM (inactive); in the experiment on COLO 205, 44.7 µM (inactive); with A498 it was 7.67 µM (inactive); with BT-549, 14.9 µM (inactive).

As for `CC(=O)OCC1OC(n2c3c(cc(C#N)c2=O)CCCCCC3)C(OC(C)=O)C(OC(C)=O)C1OC(C)=O` (configuration not stated), the GI50 with NCI/ADR-RES, in the experiment on LOX IMVI, with KM12, in the experiment with Hs-578T, with PC-3 and in the experiment on SF-268 was > 100 µM (inactive) throughout. Moreover, the GI50 with HOP-62, in the experiment with MDA-N, in the experiment on CAKI-1, with HT-29, in the experiment with A549 and in the experiment on UACC-257 was > 100 µM (inactive) each time. Further, the GI50 with SNB-75 was 18.4 µM (inactive); in the experiment on SN12C, > 100 µM (inactive); in the experiment on HL-60, > 100 µM (inactive); in the experiment with COLO 205, > 100 µM (inactive); in the experiment with Malme-3M, > 100 µM (inactive); with A498 it was > 100 µM (inactive). In addition, the GI50 in the experiment on BT-549 was > 100 µM (inactive).

Turning to `O=C(O)CCCN/C(=C1\C(=O)C(=O)N(c2ccccc2)C1=O)c1ccccc1`, the GI50 in the experiment on NCI/ADR-RES, in the experiment with LOX IMVI, in the experiment on KM12, with Hs-578T, with PC-3 and with SF-268 was > 100 µM (inactive) in each case. The GI50 in the experiment with HOP-62, in the experiment with MDA-N, in the experiment with CAKI-1, in the experiment with HT-29, in the experiment on A549 and with UACC-257 was > 100 µM (inactive) throughout. Besides, the GI50 in the experiment with SNB-75, with SN12C, with HL-60, with COLO 205, in the experiment with Malme-3M and in the experiment on BT-549 was > 100 µM (inactive) each time.

Consider `NC(=O)c1cc2ccccc2o/c1=N/O`, for which the GI50 is > 100 µM (inactive) with NCI/ADR-RES; > 100 µM (inactive) in the experiment with LOX IMVI; > 100 µM (inactive) in the experiment on KM12; 26.2 µM (inactive) in the experiment with Hs-578T; > 100 µM (inactive) in the experiment with PC-3; > 100 µM (inactive) with SF-268. The GI50 in the experiment on HOP-62 was > 100 µM (inactive); with MDA-N, > 100 µM (inactive); with CAKI-1, 27.9 µM (inactive); in the experiment with HT-29, > 100 µM (inactive); in the experiment on A549, 78.5 µM (inactive); in the experiment with UACC-257, > 100 µM (inactive). The GI50 is > 100 µM (inactive) in the experiment with SNB-75; > 100 µM (inactive) in the experiment on SN12C; 75.2 µM (inactive) with HL-60; > 100 µM (inactive) in the experiment on COLO 205; > 100 µM (inactive) in the experiment on BT-549.

In the case of `c1ccc(CN2C3C4N(Cc5ccccc5)C2C2N(Cc5ccccc5)C(C(N2Cc2ccccc2)N4Cc2ccccc2)N3Cc2ccccc2)cc1`, the GI50 in the experiment with NCI/ADR-RES, in the experiment with LOX IMVI, in the experiment with KM12, in the experiment on Hs-578T, in the experiment on PC-3 and in the experiment with SF-268 was > 100 µM (inactive) in each case. In addition, the GI50 in the experiment on HOP-62, in the experiment on MDA-N, in the experiment on CAKI-1, in the experiment on HT-29, in the experiment on A549 and in the experiment with UACC-257 was > 100 µM (inactive) each time. Besides, the GI50 with SNB-75, in the experiment on SN12C, in the experiment on HL-60, in the experiment on COLO 205, in the experiment with A498 and with BT-549 was > 100 µM (inactive) throughout.
